From ChEMBL document CHEMBL3880421, “Indazole compounds and pharmaceutical compositions for inhibiting protein kinases, and methods for their use” (2003) come the findings set out here.

Structures are written as SMILES.

For orientation: inhibition means the relative decrease from the control value, in per cent.

A short description of the assay: Antiproliferative activity against VEGF-stimulated HUVEC cells assessed as reduction in cell viability at 10 nM preincubated for 1 hr followed by addition of VEGF measured after 72 hrs by MTT assay. Conditions: Homo sapiens. In kind it is functional. A general note: Formazan colour is commonly taken as a measure of viable cells.
On to `CCCN(CCC)CC(=O)Nc1cccc(Oc2ccc3c(/C=C/c4ccccc4)n[nH]c3c2)c1`, for which the inhibition at 0.01 µM was 25%.
`C[C@@]12C[C@H]3C[C@H]1C[C@@]3(C(=O)Nc1cccc(Nc3ccc4c(/C=C/c5ccccc5)n[nH]c4c3)c1)C2`: the inhibition at 0.01 µM is 15%.
Consider `Cc1ccc(C2(C(=O)Nc3cccc(C(=O)c4ccc5c(/C=C/c6ccccc6)n[nH]c5c4)c3)CC2)cc1`, for which the inhibition at 0.01 µM was found to be 0%.
Take `CCC(C(=O)Nc1cccc(Oc2ccc3c(/C=C/c4ccccc4)n[nH]c3c2)c1)c1ccccc1C` (configuration not stated): the inhibition at 0.01 µM stood at 46%.
Then `CN(C)C(=S)SCC(=O)Nc1cccc(C(=O)c2ccc3c(/C=C/c4ccccc4)n[nH]c3c2)c1`, with 25%; and `O=C(c1cccc(NC(=O)c2cc(=O)cco2)c1)c1ccc2c(/C=C/c3ccccc3)n[nH]c2c1`, with -13%; and `O=C(Nc1cccc(Oc2ccc3c(/C=C/c4ccccc4)n[nH]c3c2)c1)c1cccc2cc[nH]c12`, with 68%.
To `O=C(/C=C/C(=O)Nc1cccc(Oc2ccc3c(/C=C/c4ccccc4)n[nH]c3c2)c1)NCC1CC1` belongs 36%; to `Cc1cc(C(=O)Nc2cccc(Nc3ccc4c(/C=C/c5ccccc5)n[nH]c4c3)c2)no1`, 6%; to `Cc1ccc(CCC(=O)Nc2cccc(C(=O)c3ccc4c(/C=C/c5ccccc5)n[nH]c4c3)c2)cc1`, 57%.
On to `O=C1CC[C@H](C(=O)Nc2cccc(Oc3ccc4c(/C=C/c5ccccc5)n[nH]c4c3)c2)N1`, for which the inhibition at 0.01 µM amounted to 32%.
Consider `O=C(CC1CC2CCC1C2)Nc1cccc(Nc2ccc3c(/C=C/c4ccccc4)n[nH]c3c2)c1` (configuration not stated), for which the inhibition at 0.01 µM was found to be 87%.
To `CN1CC(C(=O)Nc2cccc(C(=O)c3ccc4c(/C=C/c5ccccc5)n[nH]c4c3)c2)CC1=O` (configuration not stated) belongs 10%; to `CC(C)CC(O)C(=O)Nc1cccc(Oc2ccc3c(/C=C/c4ccccc4)n[nH]c3c2)c1` (configuration not stated), 69%; to `CO[C@H](C(=O)Nc1cccc(Oc2ccc3c(/C=C/c4ccccc4)n[nH]c3c2)c1)c1ccccc1`, 30%.
For `CC1(C)OC(=O)[C@H](CC(=O)Nc2cccc(Oc3ccc4c(/C=C/c5ccccc5)n[nH]c4c3)c2)O1`, the inhibition at 0.01 µM was found to be 22%.
Then `CC(C)=NOC(C)C(=O)Nc1cccc(Nc2ccc3c(/C=C/c4ccccc4)n[nH]c3c2)c1` (configuration not stated), with -1%; and `O=C(Cc1c(F)cccc1F)Nc1cccc(C(=O)c2ccc3c(/C=C/c4ccccc4)n[nH]c3c2)c1`, with 81%.
`O=C(Nc1cccc(Oc2ccc3c(/C=C/c4ccccc4)n[nH]c3c2)c1)C1C[C@H]2C[C@@H]1CCC2O` (some centres not stated): the inhibition at 0.01 µM is 52%.
Then `CC(C)CC(=O)C(=O)Nc1cccc(Nc2ccc3c(/C=C/c4ccccc4)n[nH]c3c2)c1`, with 11%; and `CC(=O)N1CCC[C@@H]1C(=O)Nc1cccc(C(=O)c2ccc3c(/C=C/c4ccccc4)n[nH]c3c2)c1`, with 37%.
Regarding `COc1ccccc1/C=C/C(=O)Nc1cccc(C(=O)c2ccc3c(/C=C/c4ccccc4)n[nH]c3c2)c1`, the inhibition at 0.01 µM was 47%.
Consider `Cc1cc(C(=O)Nc2cccc(C(=O)c3ccc4c(/C=C/c5ccccc5)n[nH]c4c3)c2)no1`, for which the inhibition at 0.01 µM turned out to be 50%.
As for `CC(=O)N1CCC(C(=O)Nc2cccc(Nc3ccc4c(/C=C/c5ccccc5)n[nH]c4c3)c2)CC1`, the inhibition at 0.01 µM was 13%.
For `CC1(C)OC(=O)CC1C(=O)Nc1cccc(C(=O)c2ccc3c(/C=C/c4ccccc4)n[nH]c3c2)c1` (configuration not stated), the inhibition at 0.01 µM was 5%.
Turning to `CC(=O)NC(C)(C)CC(=O)Nc1cccc(Nc2ccc3c(/C=C/c4ccccc4)n[nH]c3c2)c1`, the inhibition at 0.01 µM is -9%.
Then `CC(=O)N1CCC(C(=O)Nc2cccc(Oc3ccc4c(/C=C/c5ccccc5)n[nH]c4c3)c2)CC1`, with 42%; and `O=C(c1cccc(NC(=O)C2CCCO2)c1)c1ccc2c(/C=C/c3ccccc3)n[nH]c2c1` (configuration not stated), with 18%.
For the compound `O=C(Cc1cccnc1)Nc1cccc(Oc2ccc3c(/C=C/c4ccccc4)n[nH]c3c2)c1`, the inhibition at 0.01 µM was 76%.
To `CC(C)(C)c1ccc(C(=O)Nc2cccc(Oc3ccc4c(/C=C/c5ccccc5)n[nH]c4c3)c2)o1` belongs 52%.
To `O=C(Cc1cc(F)cc(F)c1)Nc1cccc(Nc2ccc3c(/C=C/c4ccccc4)n[nH]c3c2)c1` belongs 77%; to `O=C(c1cccc(NC(=O)C2CCOC2)c1)c1ccc2c(/C=C/c3ccccc3)n[nH]c2c1` (configuration not stated), 12%.
With `O=C(c1cccc(NC(=O)C2CC3C=CCC(C3)C2)c1)c1ccc2c(/C=C/c3ccccc3)n[nH]c2c1` (configuration not stated), the inhibition at 0.01 µM is 56%.
For `O=C1NCC(C(=O)Nc2cccc(Nc3ccc4c(/C=C/c5ccccc5)n[nH]c4c3)c2)N1` (configuration not stated), the inhibition at 0.01 µM worked out at 7%.
In the case of `O=C(/C=C/C1C[C@H]2C=C[C@H]1C2)Nc1cccc(Nc2ccc3c(/C=C/c4ccccc4)n[nH]c3c2)c1` (some centres not stated), the inhibition at 0.01 µM is 30%.
As to `CC1(C)OC(=O)CC1C(=O)Nc1cccc(Nc2ccc3c(/C=C/c4ccccc4)n[nH]c3c2)c1` (configuration not stated), the inhibition at 0.01 µM came to 16%.
As to `Cc1cc(C(=O)Nc2cccc(C(=O)c3ccc4c(/C=C/c5ccccc5)n[nH]c4c3)c2)c(C)[nH]1`, the inhibition at 0.01 µM is 26%.
`COc1ccc(C#N)c(C(=O)Nc2cccc(Nc3ccc4c(/C=C/c5ccccc5)n[nH]c4c3)c2)c1`: the inhibition at 0.01 µM was -18%.
Turning to `O=C(Cc1ccccc1)C(=O)Nc1cccc(C(=O)c2ccc3c(/C=C/c4ccccc4)n[nH]c3c2)c1`, the inhibition at 0.01 µM is -37%.
Then `CC(C)(C)[C@@H](O)C(=O)Nc1cccc(C(=O)c2ccc3c(/C=C/c4ccccc4)n[nH]c3c2)c1`, with 27%.
Regarding `O=C(Nc1cccc(Nc2ccc3c(/C=C/c4ccccc4)n[nH]c3c2)c1)[C@H]1CCC[C@H]1O`, the inhibition at 0.01 µM was -4%.
As to `CC(=O)NC(C)(C)CC(=O)Nc1cccc(C(=O)c2ccc3c(/C=C/c4ccccc4)n[nH]c3c2)c1`, the inhibition at 0.01 µM amounted to 35%.
Regarding `CC(C)=CC1C(C(=O)Nc2cccc(Oc3ccc4c(/C=C/c5ccccc5)n[nH]c4c3)c2)C1(C)C` (configuration not stated), the inhibition at 0.01 µM was 24%.
On to `CC1CC1C(=O)Nc1cccc(C(=O)c2ccc3c(/C=C/c4ccccc4)n[nH]c3c2)c1` (configuration not stated), for which the inhibition at 0.01 µM stood at 96%.
On to `CC(C)(C)c1ccc(C(=O)Nc2cccc(Nc3ccc4c(/C=C/c5ccccc5)n[nH]c4c3)c2)o1`, for which the inhibition at 0.01 µM was 60%.
Regarding `CC(C)=NOC(C)C(=O)Nc1cccc(C(=O)c2ccc3c(/C=C/c4ccccc4)n[nH]c3c2)c1` (configuration not stated), the inhibition at 0.01 µM worked out at 28%.
Then `CN(C)CCCC(=O)Nc1cccc(Oc2ccc3c(/C=C/c4ccccc4)n[nH]c3c2)c1`, with 96%; and `CC(=O)N1CCCC1C(=O)Nc1cccc(Nc2ccc3c(/C=C/c4ccccc4)n[nH]c3c2)c1` (configuration not stated), with -2%.
As to `O=C(c1cccc(NC(=O)C2C[C@H]3C=C[C@H]2C3)c1)c1ccc2c(/C=C/c3ccccc3)n[nH]c2c1` (some centres not stated), the inhibition at 0.01 µM worked out at 44%.
To `Cc1cc(C(=O)Nc2cccc(Nc3ccc4c(/C=C/c5ccccc5)n[nH]c4c3)c2)c(C)[nH]1` belongs 76%; to `O=C(Cc1cc(F)ccc1F)Nc1cccc(C(=O)c2ccc3c(/C=C/c4ccccc4)n[nH]c3c2)c1`, 80%.
For `O=C(Cc1c(F)cccc1F)Nc1cccc(Nc2ccc3c(/C=C/c4ccccc4)n[nH]c3c2)c1`, the inhibition at 0.01 µM was found to be 40%.
